Assay results from ChEMBL document CHEMBL1201862, “PubChem BioAssay data set” (2004).
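Cultured in 96-well plates, cells were exposed to test compound for 48 hours across five concentrations. GI50 is the concentration that inhibits growth by half.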 Active and inactive are the calls of the source. Cut-off read from the data, not from the text of the source: active = GI50 up to about 1.1 µM and inactive = higher.

Tests used:
Experiment in all cases: growth of human tumour cells (NCI), 48 h
[1] = test system: 786-0
[2] = test system: A549
[3] = test system: ACHN
[4] = test system: CCRF-CEM
[5] = test system: DU-145
[6] = test system: HCC 2998
[7] = test system: HCT-116
[8] = test system: HL-60
[9] = test system: HOP-92
[10] = test system: LOX IMVI
[11] = test system: MDA-N
[12] = test system: NCI-H23
[13] = test system: NCI-H460
[14] = test system: OVCAR-5
[15] = test system: OVCAR-8
[16] = test system: SK-MEL-2
[17] = test system: SNB-19
[18] = test system: TK-10
[19] = test system: SF-268

| SMILES | GI50 [1] | GI50 [2] | GI50 [3] | GI50 [4] | GI50 [5] | GI50 [6] | GI50 [7] | GI50 [8] | GI50 [9] | GI50 [10] | GI50 [11] | GI50 [12] | GI50 [13] | GI50 [14] | GI50 [15] | GI50 [16] | GI50 [17] | GI50 [18] | GI50 [19] |
| --- | --- | --- | --- | --- | --- | --- | --- | --- | --- | --- | --- | --- | --- | --- | --- | --- | --- | --- | --- |
| CC(=O)c1cnc2oc3ccc(O)cc3c2c1-c1ccccc1 | 39.4 µM (inactive) | 47.1 µM (inactive) | 21.1 µM (inactive) | 45 µM (inactive) | 32.1 µM (inactive) | 38 µM (inactive) | 57.1 µM (inactive) | 37.5 µM (inactive) | 18.3 µM (inactive) | 99.1 µM (inactive) | 40.1 µM (inactive) | 46.1 µM (inactive) | 33.5 µM (inactive) | 71.6 µM (inactive) | 29.4 µM (inactive) | 22.6 µM (inactive) | 37.3 µM (inactive) | 28.6 µM (inactive) |  |
| N=C(N)SCc1ccc(Cl)cc1Cl.O=[N+]([O-])c1c(O)c(Cl)cc(Cl)c1Cl | 11.7 µM (inactive) | 22.3 µM (inactive) | 10.7 µM (inactive) | 3.18 µM (inactive) | 13.5 µM (inactive) | 8.18 µM (inactive) | 11.8 µM (inactive) | 6.04 µM (inactive) | 11.5 µM (inactive) | 16.7 µM (inactive) | 7.46 µM (inactive) | 13.4 µM (inactive) | 10.6 µM (inactive) | 16.3 µM (inactive) | 24.3 µM (inactive) | 12.7 µM (inactive) | 19.4 µM (inactive) | 6.18 µM (inactive) | 17 µM (inactive) |
| O=C(c1ccccc1)c1c(C(F)(F)F)[n+]([O-])c2cc(Cl)c(Cl)cc2[n+]1[O-] | 0.502 µM (active) | 0.736 µM (active) | 0.764 µM (active) | 0.467 µM (active) | 0.45 µM (active) | 2.16 µM (inactive) | 0.528 µM (active) | 0.789 µM (active) | 7.01 µM (inactive) | 0.41 µM (active) | 1.79 µM (inactive) | 0.565 µM (active) | 1.15 µM (inactive) | 1.69 µM (inactive) | 2.65 µM (inactive) | 3.32 µM (inactive) | 1.56 µM (inactive) | 1.07 µM (active) | 0.671 µM (active) |
| C/C(=N\NC(=S)Nc1ccc(C)cc1)c1nc2cccnc2[nH]1 | 1.6 µM (inactive) | 2.33 µM (inactive) | 1.44 µM (inactive) | 0.452 µM (active) | 2.59 µM (inactive) | 5.47 µM (inactive) | 1.6 µM (inactive) | 2.22 µM (inactive) | 6.38 µM (inactive) | 1.41 µM (inactive) | 4.63 µM (inactive) | 2.65 µM (inactive) | 1.32 µM (inactive) | 1.95 µM (inactive) | 3.05 µM (inactive) | 10.8 µM (inactive) | 3.2 µM (inactive) | 2.67 µM (inactive) | 0.587 µM (active) |
| COc1ccc(OC)c2c1C(=O)C(O)=C(Cl)C2=O | > 100 µM (inactive) | > 100 µM (inactive) | > 100 µM (inactive) | > 100 µM (inactive) | > 100 µM (inactive) | > 100 µM (inactive) | > 100 µM (inactive) | > 100 µM (inactive) | > 100 µM (inactive) | > 100 µM (inactive) | > 100 µM (inactive) | > 100 µM (inactive) | > 100 µM (inactive) | > 100 µM (inactive) | > 100 µM (inactive) | > 100 µM (inactive) | > 100 µM (inactive) | > 100 µM (inactive) | > 100 µM (inactive) |
| C=CCN1C(=O)CC(=O)N(NC2=NNC3(C(=O)N2)c2ccccc2-c2ccccc23)C1=S | 38.5 µM (inactive) | 34.2 µM (inactive) | 34.4 µM (inactive) | 34 µM (inactive) | 44.5 µM (inactive) | 38.6 µM (inactive) | 28.4 µM (inactive) | 27.9 µM (inactive) | 15.4 µM (inactive) | 42.7 µM (inactive) | > 100 µM (inactive) | 29.2 µM (inactive) | 26.1 µM (inactive) | 53.7 µM (inactive) | 29.2 µM (inactive) | 25.2 µM (inactive) | 48.8 µM (inactive) | 64.1 µM (inactive) | 51.3 µM (inactive) |
| CC(=O)C1(C)CC(C#N)(C#N)C(C#N)=C1N (stereo not drawn) | > 100 µM (inactive) | 25.1 µM (inactive) | > 100 µM (inactive) | > 100 µM (inactive) | > 100 µM (inactive) | > 100 µM (inactive) | > 100 µM (inactive) | > 100 µM (inactive) | 21 µM (inactive) | > 100 µM (inactive) | > 100 µM (inactive) | > 100 µM (inactive) |  | > 100 µM (inactive) | > 100 µM (inactive) | > 100 µM (inactive) | > 100 µM (inactive) | > 100 µM (inactive) | > 100 µM (inactive) |
| N#Cc1c(O)c(/C=N/c2ccc(Cl)cc2)c(=O)n2c1[nH]c1ccccc12 | > 100 µM (inactive) | > 100 µM (inactive) | > 100 µM (inactive) | > 100 µM (inactive) | > 100 µM (inactive) | > 100 µM (inactive) | > 100 µM (inactive) | > 100 µM (inactive) | > 100 µM (inactive) | > 100 µM (inactive) | > 100 µM (inactive) | > 100 µM (inactive) | > 100 µM (inactive) | > 100 µM (inactive) | > 100 µM (inactive) | > 100 µM (inactive) | > 100 µM (inactive) | > 100 µM (inactive) | > 100 µM (inactive) |
| CCOC(=O)N(C)C(=C(F)F)C(F)(F)F | 21.7 µM (inactive) | 29 µM (inactive) | > 10 µM (inactive) | 19.8 µM (inactive) | 33.2 µM (inactive) | 20.6 µM (inactive) | 20.4 µM (inactive) | 20.4 µM (inactive) | 25.4 µM (inactive) | 23 µM (inactive) | 18.5 µM (inactive) | 20.5 µM (inactive) | 28.6 µM (inactive) | 35.5 µM (inactive) | 23.8 µM (inactive) | 16 µM (inactive) |  | 27.8 µM (inactive) | 25.2 µM (inactive) |
| CCOc1ccc(C(=O)/C=C2/Nc3ccccc3N/C2=C/C(=O)c2ccc(OCC)cc2)cc1 | 80 µM (inactive) | > 100 µM (inactive) | > 100 µM (inactive) | 29.7 µM (inactive) | > 100 µM (inactive) | > 100 µM (inactive) | 78.2 µM (inactive) | > 100 µM (inactive) | > 100 µM (inactive) | > 100 µM (inactive) | > 100 µM (inactive) | > 100 µM (inactive) | 85.3 µM (inactive) | > 100 µM (inactive) |  | > 100 µM (inactive) | > 100 µM (inactive) | > 100 µM (inactive) | > 100 µM (inactive) |
| CCOC(=O)c1c(N)n(-c2ccccc2)c(=S)n(-c2ccccc2)c1=O | > 100 µM (inactive) | > 100 µM (inactive) | > 100 µM (inactive) | > 100 µM (inactive) | > 100 µM (inactive) | > 100 µM (inactive) |  | > 100 µM (inactive) | > 100 µM (inactive) | > 100 µM (inactive) | > 100 µM (inactive) | > 100 µM (inactive) | > 100 µM (inactive) | > 100 µM (inactive) | > 100 µM (inactive) | > 100 µM (inactive) | > 100 µM (inactive) | > 100 µM (inactive) | > 100 µM (inactive) |
| O=C(NC(N1CCN(c2cc3c(cc2F)c(=O)c(C(=O)O)cn3C2CC2)CC1)(C(F)(F)F)C(F)(F)F)c1ccccc1 | 45.2 µM (inactive) | 39.7 µM (inactive) | 35.8 µM (inactive) | 24.7 µM (inactive) | 62.1 µM (inactive) | 23.8 µM (inactive) | 34.1 µM (inactive) | 25.4 µM (inactive) | 33.8 µM (inactive) | 33.9 µM (inactive) | 39.6 µM (inactive) | 25.9 µM (inactive) | 32.1 µM (inactive) | 26.7 µM (inactive) | 46 µM (inactive) | 34.9 µM (inactive) | 33.9 µM (inactive) | 27.4 µM (inactive) | 40.9 µM (inactive) |
| COC1CC(OC2C(C)OC(OC3C(C)OC(OC4C(O)CC(O[C@H]5CC[C@@]6(C)C(=CC[C@]7(O)[C@@H]6C[C@@H](OC(=O)/C=C/c6ccccc6)[C@@]6(C)[C@]7(O)CC[C@@]6(O)C(C)=O)C5)OC4C)CC3OC)CC2OC)OC(C)C1O (stereo partly drawn) | > 6.25 µM (inactive) | > 6.25 µM (inactive) | > 6.25 µM (inactive) | > 6.25 µM (inactive) | > 6.25 µM (inactive) | > 6.25 µM (inactive) | > 6.25 µM (inactive) | > 6.25 µM (inactive) | > 6.25 µM (inactive) | > 6.25 µM (inactive) | > 6.25 µM (inactive) | > 6.25 µM (inactive) |  | > 6.25 µM (inactive) | > 6.25 µM (inactive) | > 6.25 µM (inactive) | > 6.25 µM (inactive) | > 6.25 µM (inactive) | > 6.25 µM (inactive) |
| Nc1ncnc2c1ccn2COC(CO)CO | > 100 µM (inactive) | > 100 µM (inactive) | > 100 µM (inactive) | > 100 µM (inactive) | > 100 µM (inactive) | > 100 µM (inactive) | > 100 µM (inactive) | 90.6 µM (inactive) | > 100 µM (inactive) | > 100 µM (inactive) | > 100 µM (inactive) | > 100 µM (inactive) | > 100 µM (inactive) | > 100 µM (inactive) | > 100 µM (inactive) | > 100 µM (inactive) | > 100 µM (inactive) | > 100 µM (inactive) | > 100 µM (inactive) |
| CCN(CC)CCC(=O)/C=C/c1ccc(Cl)c(Cl)c1 | 3.31 µM (inactive) | 2.78 µM (inactive) | 3.03 µM (inactive) | 2.45 µM (inactive) | > 10 µM (inactive) | 3.36 µM (inactive) | 1.71 µM (inactive) | 0.302 µM (active) | > 10 µM (inactive) |  | 2.63 µM (inactive) | > 10 µM (inactive) | 4.94 µM (inactive) | 7.93 µM (inactive) | 4.21 µM (inactive) | 8.55 µM (inactive) | 5.79 µM (inactive) | 2.65 µM (inactive) | 3.05 µM (inactive) |
